We go through 39 compounds from patent US20090275583A1, “ANTIVIRAL COMPOUNDS AND USE THEREOF” (Myriad Genetics, Incorporated, priority 2006, published 2009).

This test has as its system HIV-1NL4-3. Put plainly: P4-MAGI assay. It is filed as cell-based. An excerpt:
P4 cells were used to test the effects of compounds on virus fusion activity. P4 cells are HIV-1 infectable CD4^+ HeLa cells that bear the bacterial lacZ gene under the control of a minimal HIV-1 LTR. Charneau, et. al., J. Mol. Biol. 241:651-662 (1994). When these cells are infected with HIV-1, β-galactosidase is expressed due to Tat activation of the viral LTR. In this assay, P4 cells were infected with the laboratory adapted strain HIV-1NL4-3 at a multiplicity of infection of 1 in the presence of DEAE-Dextran. Immediately after addition of virus to the cells, increasing concentrations of compound were added to the cells. […] The effect on cell viability (TC50, concentration of compound that inhibits growth by 50%) was determined in mock-infected cells with the WST-1 Cell Proliferation Reagent (Roche Diagnostics).

The mark [1] stands for this setting: Human immunodeficiency virus 1, 24 h, P4 cells, 24 hour incubation, β-galactosidase expression, read-out: P4-MAGI IC50.
Where [2] appears, read: Human immunodeficiency virus 1, text statement, less than about 100 nm, read-out: P4-MAGI assay IC50.

Read-outs that look alike come from different tables or passages of the source. Bounds are passed on as bounds.

Consider `CC(O)(CO)[C@@H]1CC[C@]2(C(=O)NCc3cccc(C(=O)NCCCCC(=O)O)c3)CC[C@]3(C)C(CCC4[C@@]5(C)CC[C@H](O)C(C)(C)C5CC[C@]43C)C12` (single isomer, unassigned) [Example 140], for which, where the note is “P4 cells, 24 hour incubation, β-galactosidase expression, read-out: P4-MAGI IC50”, the IC50 turned out to be 1600 nM. Take `C=C(C)[C@@H]1CC[C@]2(C(=O)NCCc3cccc(S(=O)(=O)NCc4cccc(C(=O)O)c4)c3)CC[C@]3(C)C(CCC4[C@@]5(C)CC[C@H](O)C(C)(C)C5CC[C@]43C)C12` (stereo partly drawn) [Example 249]: the IC50 under setting [1] is 143 nM. For `C=C(C)[C@@H]1CC[C@]2(C(=O)NCCc3cccc(C(=O)NCc4ccc(OCCCN5CCNCC5)cc4)c3)CC[C@]3(C)C(CCC4[C@@]5(C)CC[C@H](O)C(C)(C)C5CC[C@]43C)C12` (stereo partly drawn) [Example 238], under setting [1], the half-maximal inhibitory concentration (IC50) stood at 678 nM. For the compound `C=C(C)[C@@H]1CC[C@]2(C(=O)NCC(C)c3cccc(C(=O)NCc4cccc(C(=O)O)c4C)c3)CC[C@]3(C)C(CCC4[C@@]5(C)CC[C@H](O)C(C)(C)C5CC[C@]43C)C12` (stereo partly drawn) [Example 83], the half-inhibitory concentration (IC50) under setting [1] was found to be 270 nM.

For `C=C(C)[C@@H]1CC[C@]2(C(=O)Nc3cccc(C(=O)NCCc4cccc(C(=O)O)c4)c3)CC[C@]3(C)C(CCC4[C@@]5(C)CC[C@H](O)C(C)(C)C5CC[C@]43C)C12` (stereo partly drawn) [Example 85], under setting [1], the IC50 was 10000 nM. Same read-out and setting: for `C=C(C)[C@@H]1CC[C@]2(C(=O)NCc3cccc(-c4noc(Cc5ccc(C#N)cc5)n4)c3)CC[C@]3(C)C(CCC4[C@@]5(C)CC[C@H](O)C(C)(C)C5CC[C@]43C)C12` (stereo partly drawn) [Example 276] the value was 10000 nM; for `C=C(C)[C@@H]1CC[C@]2(C(=O)NCCc3cccc(OCCCCC(=O)O)c3)CC[C@]3(C)C(CCC4[C@@]5(C)CC[C@H](O)C(C)(C)C5CC[C@]43C)C12` (stereo partly drawn) [Example 113], 721 nM; for `C=C(C)[C@@H]1CC[C@]2(C(=O)NCc3ccc(C(=O)O)o3)CC[C@]3(C)C(CCC4[C@@]5(C)CC[C@H](O)C(C)(C)C5CC[C@]43C)C12` (stereo partly drawn) [Example 88], 6900 nM. Still for that read-out and setting: for `C=C(C)[C@@H]1CC[C@]2(C(=O)N[C@@H](Cc3ccc(OCCN4CCOC4=O)cc3)C(=O)O)CC[C@]3(C)C(CCC4[C@@]5(C)CC[C@H](O)C(C)(C)C5CC[C@]43C)C12` (stereo partly drawn) [Example 116] the value was 177 nM; for `C=C(C)[C@@H]1CC[C@]2(C(=O)NCc3cccc(C(=O)Nc4ccc(O)c(C(=O)O)c4)c3)CC[C@]3(C)C(CCC4[C@@]5(C)CC[C@H](O)C(C)(C)C5CC[C@]43C)C12` (stereo partly drawn) [Example 12], 7200 nM; for `C=C(C)[C@@H]1CC[C@]2(C(=O)NCc3cccc(C(=O)NCc4cccc(Br)c4)c3)CC[C@]3(C)C(CCC4[C@@]5(C)CC[C@H](O)C(C)(C)C5CC[C@]43C)C12` (stereo partly drawn) [Example 30], 410 nM. Same read-out and setting: then `CC(O)(CN1CCCC1)[C@@H]1CC[C@]2(C(=O)NCc3cccc(C(=O)NCCCCC(=O)O)c3)CC[C@]3(C)C(CCC4[C@@]5(C)CC[C@H](O)C(C)(C)C5CC[C@]43C)C12` (stereo partly drawn) [Example 138], with 550 nM; and `C=C(C)[C@@H]1CC[C@]2(C(=O)NCCc3cccc(C(=O)NCc4ccc(OCCCn5cnc(C(=O)O)c5)c(C(=O)O)c4)c3)CC[C@]3(C)C(CCC4[C@@]5(C)CC[C@H](O)C(C)(C)C5CC[C@]43C)C12` (stereo partly drawn) [Example 247], with 417 nM. For the compound `C=C(C)[C@@H]1CC[C@]2(C(=O)NCC(C)c3cccc(C(=O)NCc4cccc(C(=O)O)c4)c3)CC[C@]3(C)C(CCC4[C@@]5(C)CC[C@H](O)C(C)(C)C5CC[C@]43C)C12` (stereo partly drawn) [Example 82], the IC50 under setting [1] was 150 nM.

For `C=C(C)[C@@H]1CC[C@]2(C(=O)NCc3cc(C(=O)NCc4cccc(C(=O)OC)c4F)ccc3F)CC[C@]3(C)C(CCC4[C@@]5(C)CC[C@H](O)C(C)(C)C5CC[C@]43C)C12` (stereo partly drawn) [Example 182], the IC50 under setting [1] came out at 600 nM. For `C=C(C)[C@@H]1CC[C@]2(C(=O)NCCc3cccc(C(=O)NCc4ncccc4C(=O)O)c3)CC[C@]3(C)C(CCC4[C@@]5(C)CC[C@H](O)C(C)(C)C5CC[C@]43C)C12` (stereo partly drawn) [Example 228], the concentration for half-maximal inhibition (IC50) under setting [1] came out at 135 nM.

Regarding `C=C(C)[C@@H]1CC[C@]2(C(=O)NCCc3cccc(OCC(O)c4ccc(C(=O)O)cc4)c3)CC[C@]3(C)C(CCC4[C@@]5(C)CC[C@H](O)C(C)(C)C5CC[C@]43C)C12` (stereo partly drawn) [Example 220], under setting [1], the IC50 was 259 nM. For the compound `C=C(C)[C@@H]1CC[C@]2(C(=O)NCc3cccc(C(=O)NCc4ccc(OC)cc4OC)c3)CC[C@]3(C)C(CCC4[C@@]5(C)CC[C@H](O)C(C)(C)C5CC[C@]43C)C12` (stereo partly drawn) [Example 46], the IC50 runs as follows: under setting [1], 59 nM; under setting [2], < 100 nM.

As to `C=C(C)[C@@H]1CC[C@]2(C(=O)NCc3cccc(C(=O)O)n3)CC[C@]3(C)C(CCC4[C@@]5(C)CC[C@H](O)C(C)(C)C5CC[C@]43C)C12` (stereo partly drawn) [Example 86], the IC50 under setting [1] was 3600 nM. The same measure, in the same setting: then `C=C(C)[C@@H]1CC[C@]2(C(=O)NCc3cccc(-c4cccc(C(=O)O)c4)c3)CC[C@]3(C)C(CCC4[C@@]5(C)CC[C@H](O)C(C)(C)C5CC[C@]43C)C12` (stereo partly drawn) [Example 128], with 1000 nM; and `C=C(C)[C@@H]1CC[C@]2(C(=O)NCc3ccc(F)c(C(=O)NCc4cccc(C(=O)OC)c4)c3)CC[C@]3(C)C(CCC4[C@@]5(C)CC[C@H](O)C(C)(C)C5CC[C@]43C)C12` (stereo partly drawn) [Example 110], with 856 nM. Regarding `C=C(C)[C@@H]1CC[C@]2(C(=O)NCc3cccc(C(=O)NCc4cccc(C(=O)O)c4C)c3C)CC[C@]3(C)C(CCC4[C@@]5(C)CC[C@H](O)C(C)(C)C5CC[C@]43C)C12` (stereo partly drawn) [Example 81], the half-maximal inhibitory concentration (IC50) under setting [1] came out at 6200 nM. With `C=C(C)[C@@H]1CC[C@]2(C(=O)NCc3ccc(C(=O)NCc4ccc(C(=O)OC)o4)o3)CC[C@]3(C)C(CCC4[C@@]5(C)CC[C@H](O)C(C)(C)C5CC[C@]43C)C12` (stereo partly drawn) [Example 89], the IC50 under setting [1] came to 2300 nM. For the compound `C=C(C)[C@@H]1CC[C@]2(C(=O)NCc3cccc(-c4nc5cc(C(=O)O)ccc5[nH]4)c3)CC[C@]3(C)C(CCC4[C@@]5(C)CC[C@H](O)C(C)(C)C5CC[C@]43C)C12` (stereo partly drawn) [Example 126], the half-inhibitory concentration (IC50) is, setting by setting: under setting [1], 66 nM; under setting [2], < 100 nM. For the compound `C=C(C)[C@@H]1CC[C@]2(C(=O)NCCc3cccc(C(=O)N4CCC(c5ccccc5)CC4)c3)CC[C@]3(C)C(CCC4[C@@]5(C)CC[C@H](O)C(C)(C)C5CC[C@]43C)C12` (stereo partly drawn) [Example 205], the IC50 under setting [1] was determined as 1000 nM.

For the compound `C=C(C)[C@@H]1CC[C@]2(C(=O)NCc3cccc(C(=O)NCc4ccc(OCCC(=O)O)c(C(=O)O)c4)c3)CC[C@]3(C)C(CCC4[C@@]5(C)CC[C@H](O)C(C)(C)C5CC[C@]43C)C12` (stereo partly drawn) [Example 119], the concentration for half-maximal inhibition (IC50) under setting [1] was 1100 nM. On the same count and under the same terms, then `C=C(C)[C@@H]1CC[C@]2(C(=O)NCc3cccc(C(=O)Nc4cccc(C(=O)O)c4)c3)CC[C@]3(C)C(CCC4[C@@]5(C)CC[C@H](O)C(C)(C)C5CC[C@]43C)C12` (stereo partly drawn) [Example 15], with 320 nM; and `C=C(C)[C@@H]1CC[C@]2(C(=O)NCc3cccc(-c4nc(-c5cccc(C(=O)O)c5)no4)c3)CC[C@]3(C)C(CCC4[C@@]5(C)CC[C@H](O)C(C)(C)C5CC[C@]43C)C12` (stereo partly drawn) [Example 127], with 768 nM.

Take `C=C(C)[C@@H]1CC[C@]2(C(=O)NCc3cccc(C(=O)NCCc4cccc(C(=O)O)c4)c3)CC[C@]3(C)C(CCC4[C@@]5(C)CC[C@H](O)C(C)(C)C5CC[C@]43C)C12` (stereo partly drawn) [Example 11]: the IC50 was 55 nM under setting [1] and < 100 nM under setting [2]. `C=C(C)[C@@H]1CC[C@]2(C(=O)NCc3cc(C(=O)NCc4ccc(N(C)C)cc4)ccc3F)CC[C@]3(C)C(CCC4[C@@]5(C)CC[C@H](O)C(C)(C)C5CC[C@]43C)C12` (stereo partly drawn) [Example 180]: the IC50 under setting [1] amounted to 1000 nM. Same read-out and setting: for `C=C(C)[C@@H]1CC[C@]2(C(=O)NCCc3cccc(C(=O)NCC(=O)NC)c3)CC[C@]3(C)C(CCC4[C@@]5(C)CC[C@H](O)C(C)(C)C5CC[C@]43C)C12` (stereo partly drawn) [Example 71] the value was 2700 nM. On to `C=C(C)[C@@H]1CC[C@]2(C(=O)NCCc3cccc(C(=O)NC(Cc4ccc(O)cc4)C(=O)O)c3)CC[C@]3(C)C(CCC4[C@@]5(C)CC[C@H](O)C(C)(C)C5CC[C@]43C)C12` (stereo partly drawn) [Example 145], for which the IC50 under setting [1] amounted to 1100 nM.

With `C=C(C)[C@@H]1CC[C@]2(C(=O)NCc3cccc(C(=O)NCc4ccccc4C(=O)O)c3)CC[C@]3(C)C(CCC4[C@@]5(C)CC[C@H](O)C(C)(C)C5CC[C@]43C)C12` (stereo partly drawn) [Example 8], the half-inhibitory concentration (IC50) under setting [1] is 875 nM. On the same count and under the same terms, then `C=C(C)[C@@H]1CC[C@]2(C(=O)NCc3cccc(C(=O)Nc4ccc(C(=O)O)cc4)c3)CC[C@]3(C)C(CCC4[C@@]5(C)CC[C@H](O)C(C)(C)C5CC[C@]43C)C12` (stereo partly drawn) [Example 14], with 1800 nM.

Consider `C=C(C)[C@@H]1CC[C@]2(C(=O)NCCc3cccc(C(=O)NCC4(C(=O)O)CC4)c3)CC[C@]3(C)C(CCC4[C@@]5(C)CC[C@H](O)C(C)(C)C5CC[C@]43C)C12` (stereo partly drawn) [Example 219], for which the half-inhibitory concentration (IC50) under setting [1] was 396 nM.

In the case of `C=C(C)[C@@H]1CC[C@]2(C(=O)NCCc3cccc(C(=O)NC4CCC(C(=O)O)CC4)c3)CC[C@]3(C)C(CCC4[C@@]5(C)CC[C@H](O)C(C)(C)C5CC[C@]43C)C12` (stereo partly drawn) [Example 209], the IC50 under setting [1] was determined as 356 nM. The same measure, in the same setting: then `C=C(C)[C@@H]1CC[C@]2(C(=O)NCCc3cccc(C(=O)N[C@@H](CCC(=O)OC)C(N)=O)c3)CC[C@]3(C)C(CCC4[C@@]5(C)CC[C@H](O)C(C)(C)C5CC[C@]43C)C12` (stereo partly drawn) [Example 77], with 106 nM. For the compound `C=C(C)[C@@H]1CC[C@]2(C(=O)NCCc3cccc(C(=O)NCC4CCCN4C(=O)OC(C)(C)C)c3)CC[C@]3(C)C(CCC4[C@@]5(C)CC[C@H](O)C(C)(C)C5CC[C@]43C)C12` (stereo partly drawn) [Example 203], under setting [1], the IC50 was found to be 856 nM. The same measure, in the same setting: then `C=C(C)[C@@H]1CC[C@]2(C(=O)NCc3cccc(COCc4cccc(C(=O)O)c4)c3)CC[C@]3(C)C(CCC4[C@@]5(C)CC[C@H](O)C(C)(C)C5CC[C@]43C)C12` (stereo partly drawn) [Example 206], with 444 nM.
